Results on twelve compounds are retold here after patent US9944589B2, “Cycloproplyamine derivatives useful as inhibitors of histone demethylases KDM1A” (Istituto Europeo de Oncologia S.r.L., priority 2012, dated 2018).

Where a name gives a salt, the structure may show the parent alone.

In experiment [1] the target is T1, human recombinant KDM1A (LSD1)/CoRest (Homo sapiens, UniProt O60341).
T1 construct: made in house; host or cells: E. coli
Nature of the experiment: Assay of enzyme inhibition of KDM1A (LSD1), Amplex UltraRed/peroxidase coupled. As to conditions: 15 min preincubation, 4.5 μM mono-methylated H3-K4 peptide, range classes, read-out: IC50 [μM], KDM1A inhibition assay. Format: biochemical. In a few lines:
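KDM1A/CoRest complex with inhibitor (e.g. 0–100 μM) and Amplex UltraRed/peroxidase preincubated 15 min at RT. Substrate: mono-methylated H3K4 21-mer peptide in 50 mM Tris pH 8, 0.05 mg/ml BSA, aerobic. IC50 from duplicates run twice, background-corrected.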

The test system of experiment [2] is Acute promyelocytic leukemia NB4 cells. Nature of the experiment: Cell growth (CellTiter-Fluor cell viability assay). In kind it is cell-based. As to conditions: Homo sapiens, NB-4, 48 h, range classes, read-out: IC50 [μM], cell growth inhibitory assay. The text has this:
CellTiter-Flor® (Promega) is as a nonlytic, single-reagent-addition fluorescence assay that measures the relative number of living cells in a culture population after experimental manipulation. The CellTiter-Fluor™ Cell Viability Assay measures the conserved and constitutive protease activity within live cells and therefore acts as a marker for cell viability.
Acute promyelocytic leukemia NB4 cells, (obtained from the Deutsche Sammlung von Mikroorganismen and Zellkulturen) in exponential growth, were incubated for 48 h with different concentrations of the inhibitors. After 48 h a volume of CellTiter-Fluor® Reagent equal to one fifth of volume of cell culture medium was added. The content was mixed and incubates for at least 90 min at 37° C. degree to obtain a stable signal. The fluorescence was recorded using an excitation wavelength of 360 nm and an emission at 535 nm. The IC50 was calculated using GraphPad Software.

For orientation: IC50 means the point on the concentration scale where inhibition reaches its midpoint. With `CC[C@@]1(N)C[C@H]1c1ccc(NC(=O)Cc2cccc3ccccc23)cc1` (relative stereo) [Example A-68, N-[4-trans-[2-amino-2-ethyl-cyclopropyl]phenyl]-2-(1-naphthyl) acetamide hydrochloride], the IC50 is < 0.1 µM in experiment [1] and 10 to 50 µM in experiment [2].
Take `N[C@]1(Cc2ccc3ccccc3c2)C[C@H]1c1ccc(-n2cc(-c3ccccc3)nn2)cc1` (relative stereo) [Example A-124, trans-1-(2-naphthylmethyl)-2-[4-(4-phenyltriazol-1-yl)phenyl]cyclopropan amine hydrochloride]: the IC50 was in the range of 0.1 to 1 µM in experiment [1] and 10 to 50 µM in experiment [2].
As for `N[C@]1(c2ccccc2)C[C@H]1c1ccc(Br)cc1` (relative stereo) [Example D-5, trans-2-(4-bromophenyl)-1-phenyl-cyclopropanamine hydrochloride], the IC50 in experiment [1] is < 0.1 µM; in experiment [2], 10 to 50 µM.
The like results for `N[C@]1(Cc2ccc3ccccc3c2)C[C@H]1c1ccc(OCc2ccccc2)cc1` (stereo in doubt) [Example A-67, 2-(4-benzyloxyphenyl)-1-(2-naphthylmethyl) cyclopropanamine hydrochloride] were, in that order, 0.1 to 1 µM and 10 to 50 µM.
For `CC[C@@]1(N)C[C@H]1c1ccc(NC(=O)c2ccc(N3CCOCC3)cc2)cc1` (relative stereo) [Example A-88, N-[4-[trans-2-amino-2-ethyl-cyclopropyl]phenyl]-4-morpholino-benzamide 2,2,2-trifluoroacetic acid], the IC50 in experiment [1] was < 0.1 µM; in experiment [2] it was 10 to 50 µM.
As for `CC[C@@]1(N)C[C@H]1c1ccc(NC(=O)c2cccc(NC(=O)OCc3ccccc3)c2)cc1` (relative stereo) [Example A-37, benzyl N-[3-[[4-[(trans)-2-amino-2-ethyl-cyclopropyl]phenyl]carbamoyl]phenyl]carbamate hydrochloride], the IC50 in experiment [1] was < 0.1 µM; in experiment [2], 10 to 50 µM.
Regarding `N[C@]1(c2ccccc2)C[C@H]1c1ccc(Cl)cc1` (relative stereo) [Example D-4, trans-2-(4-chlorophenyl)-1-phenyl-cyclopropanamine hydrochloride], the results for the IC50 in experiment [1] and in experiment [2] were 0.1 to 1 µM and 50 to 100 µM, respectively.
The like results for `N[C@]1(CCc2ccccc2)C[C@H]1c1ccc(NC(=O)c2ccc(-c3ccccc3)cc2)cc1` (relative stereo) [Example A-113, N-[4-(trans-2-amino-2-phenethyl-cyclopropyl)phenyl]-4-phenyl-benzamide hydrochloride] were, in that order, 0.1 to 1 µM and ≤ 10 µM.
Consider `N[C@]1(Cc2ccc3ccccc3c2)C[C@H]1c1ccc(NC(=O)c2cccc(Cl)c2)cc1` (relative stereo) [Example A-79, N-[4-[trans-2-amino-2-(2-naphthylmethyl)cyclopropyl]phenyl]-3-chloro-benzamide hydrochloride], for which the IC50 was < 0.1 µM in experiment [1] and 10 to 50 µM in experiment [2].
On to `CC[C@@]1(N)C[C@H]1c1ccc(NC(=O)c2ccncc2)cc1` (relative stereo) [Example A-101, N-[4-(trans-2-amino-2-ethyl-cyclopropyl)phenyl] pyridine-4-carboxamide dihydrochloride], for which the IC50 is < 0.1 µM in experiment [1] and 10 to 50 µM in experiment [2].
The like results for `CN1CCC(c2ccc(C(=O)Nc3ccc([C@@H]4C[C@]4(N)CCc4ccccc4)cc3)cc2)CC1` (relative stereo) [Example A-115, N-[4-(trans-2-amino-2-phenethyl-cyclopropyl)phenyl]-4-(1-methyl-4-piperidyl)benzamide dihydrochloride] were, in that order, < 0.1 µM and ≤ 10 µM.
With `CC[C@@]1(N)C[C@H]1c1ccc(-n2cc(-c3cccc(NC(=O)OCc4ccccc4)c3)nn2)cc1` (relative stereo) [Example A-121, Benzyl N-[3-[1-[4-[trans-2-amino-2-ethyl-cyclopropyl]phenyl]triazol-4-yl]phenyl]carbamate hydrochloride], the IC50 in experiment [1] was in the range of 0.1 to 1 µM; in experiment [2] it was 50 to 100 µM.
